According to ChEMBL document CHEMBL3856189, “Synthesis of novel diterpenoid analogs with in-vivo antitumor activity” (Eur J Med Chem, 2016):

Test system: PC-3
Assay: Selectivity index, ratio of IC50 for HAF cells to IC50 for human PC3 cells
Assay type: functional
Conditions: not given

Row | Compound | Ratio IC50
1 | COc1ccc(NC(=O)c2cc3c(cc2OC)[C@@]2(C)CC[C@H](O)C(C)(C)[C@@H]2CC3)cc1 | 10

Test system: not listed separately
Assay: Antiproliferative activity against human MDA-MB-231 cells after 96 hrs by SRB assay
Assay type: functional, cell-based
Conditions: MDA-MB-231, 96 h

Row | Compound | IC50
2 | COc1cc2c(cc1C(=O)Nc1ccc(Cl)cc1)CC[C@H]1C(C)(C)[C@@H](O)CC[C@]21C | 1030 nM
3 | COc1cc2c(cc1C(=O)N(C)C)CC[C@H]1C(C)(C)[C@@H](O)CC[C@]21C | > 25000 nM
4 | COc1ccc(NC(=O)c2cc3c(cc2OC)[C@@]2(C)CC[C@H](O)C(C)(C)[C@@H]2CC3)cc1 | 410 nM

Test system: T47D
Assay: Selectivity index, ratio of IC50 for HAF cells to IC50 for human T47D cells
Assay type: functional
Conditions: not given

Row | Compound | Ratio IC50
5 | COc1ccc(NC(=O)c2cc3c(cc2OC)[C@@]2(C)CC[C@H](O)C(C)(C)[C@@H]2CC3)cc1 | 10

Test system: not listed separately
Assay: Antiproliferative activity against human PC3 cells after 96 hrs by SRB assay
Assay type: functional, cell-based
Conditions: PC-3, 96 h

Row | Compound | IC50
6 | COc1ccc(NC(=O)c2cc3c(cc2OC)[C@@]2(C)CC[C@H](O)C(C)(C)[C@@H]2CC3)cc1 | 500 nM

Test system: not listed separately
Assay: Antiproliferative activity against human HT-29 cells after 96 hrs by SRB assay
Assay type: functional, cell-based
Conditions: HT-29, 96 h

Row | Compound | IC50
7 | COc1ccc(NC(=O)c2cc3c(cc2OC)[C@@]2(C)CC[C@H](O)C(C)(C)[C@@H]2CC3)cc1 | 520 nM

Test system: not listed separately
Assay: Selectivity index, ratio of IC50 for HAF cells to IC50 for human MDA-MB-231 cells
Assay type: functional
Conditions: not given

Row | Compound | Ratio IC50
8 | COc1ccc(NC(=O)c2cc3c(cc2OC)[C@@]2(C)CC[C@H](O)C(C)(C)[C@@H]2CC3)cc1 | 10

Test system: not listed separately
Assay: Antiproliferative activity against human MCF7 cells after 96 hrs by SRB assay
Assay type: functional, cell-based
Conditions: MCF7, 96 h

Row | Compound | IC50
9 | COc1cc2c(cc1C(=O)Nc1ccc(Cl)cc1)CC[C@H]1C(C)(C)[C@@H](O)CC[C@]21C | 1460 nM
10 | COc1cc2c(cc1C(=O)N(C)C)CC[C@H]1C(C)(C)[C@@H](O)CC[C@]21C | > 25000 nM
11 | COc1ccc(NC(=O)c2cc3c(cc2OC)[C@@]2(C)CC[C@H](O)C(C)(C)[C@@H]2CC3)cc1 | 280 nM

Test system: HL-60
Assay: Selectivity index, ratio of IC50 for HAF cells to IC50 for human HL60 cells
Assay type: functional
Conditions: not given

Row | Compound | Ratio IC50
12 | COc1ccc(NC(=O)c2cc3c(cc2OC)[C@@]2(C)CC[C@H](O)C(C)(C)[C@@H]2CC3)cc1 | 10

Test system: not listed separately
Assay: Antiproliferative activity against human DU145 cells after 96 hrs by SRB assay
Assay type: functional, cell-based
Conditions: DU-145, 96 h

Row | Compound | IC50
13 | COc1ccc(NC(=O)c2cc3c(cc2OC)[C@@]2(C)CC[C@H](O)C(C)(C)[C@@H]2CC3)cc1 | 540 nM

Test system: not listed separately
Assay: Antiproliferative activity against human HL60 cells after 96 hrs by SRB assay
Assay type: functional, cell-based
Conditions: HL-60, 96 h

Row | Compound | IC50
14 | COc1ccc(NC(=O)c2cc3c(cc2OC)[C@@]2(C)CC[C@H](O)C(C)(C)[C@@H]2CC3)cc1 | 410 nM

Test system: not listed separately
Assay: Antiproliferative activity against HAF cells after 96 hrs by SRB assay
Assay type: cell-based
Conditions: Homo sapiens

Row | Compound | IC50
15 | COc1ccc(NC(=O)c2cc3c(cc2OC)[C@@]2(C)CC[C@H](O)C(C)(C)[C@@H]2CC3)cc1 | 4010 nM

Test system: DU-145
Assay: Selectivity index, ratio of IC50 for HAF cells to IC50 for human DU145 cells
Assay type: functional
Conditions: not given

Row | Compound | Ratio IC50
16 | COc1ccc(NC(=O)c2cc3c(cc2OC)[C@@]2(C)CC[C@H](O)C(C)(C)[C@@H]2CC3)cc1 | 10

Test system: not listed separately
Assay: Selectivity index, ratio of IC50 for HAF cells to IC50 for human HT-29 cells
Assay type: functional
Conditions: not given

Row | Compound | Ratio IC50
17 | COc1ccc(NC(=O)c2cc3c(cc2OC)[C@@]2(C)CC[C@H](O)C(C)(C)[C@@H]2CC3)cc1 | 10

Test system: HCT-116
Assay: Selectivity index, ratio of IC50 for HAF cells to IC50 for human HCT116 cells
Assay type: functional
Conditions: not given

Row | Compound | Ratio IC50
18 | COc1ccc(NC(=O)c2cc3c(cc2OC)[C@@]2(C)CC[C@H](O)C(C)(C)[C@@H]2CC3)cc1 | 10

Test system: not listed separately
Assay: Antiproliferative activity against human HCT116 cells after 96 hrs by SRB assay
Assay type: functional, cell-based
Conditions: HCT-116, 96 h

Row | Compound | IC50
19 | COc1ccc(NC(=O)c2cc3c(cc2OC)[C@@]2(C)CC[C@H](O)C(C)(C)[C@@H]2CC3)cc1 | 510 nM

Test system: MCF7
Assay: Selectivity index, ratio of IC50 for HAF cells to IC50 for human MCF7 cells
Assay type: functional
Conditions: not given

Row | Compound | Ratio IC50
20 | COc1ccc(NC(=O)c2cc3c(cc2OC)[C@@]2(C)CC[C@H](O)C(C)(C)[C@@H]2CC3)cc1 | 10

Test system: not listed separately
Assay: Antiproliferative activity against human T47D cells after 96 hrs by SRB assay
Assay type: functional, cell-based
Conditions: not given

Row | Compound | IC50
21 | COc1cc2c(cc1C(=O)Nc1ccc(Cl)cc1)CC[C@H]1C(C)(C)[C@@H](O)CC[C@]21C | 150 nM
22 | COc1cc2c(cc1C(=O)N(C)C)CC[C@H]1C(C)(C)[C@@H](O)CC[C@]21C | > 25000 nM
23 | COc1ccc(NC(=O)c2cc3c(cc2OC)[C@@]2(C)CC[C@H](O)C(C)(C)[C@@H]2CC3)cc1 | 30 nM
